Experimental data from patent publication US10765114B2, “4-amino-6-(pyridyl and 2-substitutedphenyl)-picolinates and 6-amino-2-(pyridyl and 2-substitutedphenyl)-pyrimidine-4-carboxylates and their use as herbicides” (Dow AgroSciences LLC, priority 2013, dated 2020).
Where two headings read alike, the source gives them in different places.

How the values were obtained:
[1] = test system: Key Broadleaf Weed and Crop Species; assay: Post-Emergent Test II (Table 5); assay type: in vivo; conditions: post-emergence, 336 h; for pest or weed control at 70 g/ha: application rate 70 (kg ai/ha; footnote: g ai/ha); for pest or weed control at 140 g/ha: application rate 140 (kg ai/ha; footnote: g ai/ha)
Summary of the method: (§1)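 Growth stage at treatment: first or second true leaf. Application: compound in acetone/DMSO diluted into an adjuvant-containing aqueous mix, sprayed at 187 L/ha at several rates. Assessment: visual 0-100% injury at 14 days against untreated plants.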

[2] = test system: Key Grass and Sedge Weeds as well as Grass Crops; assay: Post-Emergent Test II (Table 6); assay type: in vivo; conditions: post-emergence, 336 h, 14 days after application; for pest or weed control at 70 g/ha: 70 g ai/ha; for pest or weed control at 140 g/ha: 140 g ai/ha
Summary of the method: as §1

[3] = Abutilon theophrasti, ABUTH: velvetleaf (Abutilon theophrasti), read-out: Visual Growth Reduction (%) 14 Days After Application ABUTH
[4] = Amaranthus retroflexus, AMARE: redroot pigweed (Amaranthus retroflexus), read-out: Visual Growth Reduction (%) 14 Days After Application AMARE
[5] = Brassica napus, BRSSS: oilseed rape, canola (Brassica napus), read-out: Visual Growth Reduction (%) 14 Days After Application BRSSS
[6] = Chenopodium album, CHEAL: lambsquarters (Chenopodium album), read-out: Visual Growth Reduction (%) 14 Days After Application CHEAL
[7] = Euphorbia heterophylla, EPHHL: wild poinsettia (Euphorbia heterophylla), read-out: Visual Growth Reduction (%) 14 Days After Application EPHHL
[8] = Helianthus annuus, HELAN: sunflower (Helianthus annuus), read-out: Visual Growth Reduction (%) 14 Days After Application HELAN
[9] = Viola tricolor, VIOTR: wild pansy (Viola tricolor), read-out: Visual Growth Reduction (%) 14 Days After Application VIOTR
[10] = CYPSS, read-out: Visual Growth Reduction (%) 14 Days After Application CYPSS
[11] = DIGSA: crabgrass (Digitaria sanguinalis), read-out: Visual Growth Reduction (%) 14 Days After Application DIGSA
[12] = ECHSS, read-out: Visual Growth Reduction (%) 14 Days After Application ECHSS
[13] = ORYSS (crop), read-out: Visual Growth Reduction (%) 14 Days After Application ORYSS
[14] = SETFA: giant foxtail (Setaria faberi), read-out: Visual Growth Reduction (%) 14 Days After Application SETFA
[15] = SORVU: grain sorghum (Sorghum vulgare), read-out: Visual Growth Reduction (%) 14 Days After Application SORVU
[16] = TRZSS (crop), read-out: Visual Growth Reduction (%) 14 Days After Application TRZSS
[17] = ZEAMX: maize, corn (Zea mays), read-out: Visual Growth Reduction (%) 14 Days After Application ZEAMX

| Structure (SMILES) | pest or weed control at 70 g/ha [1, 3] [%] | pest or weed control at 140 g/ha [1, 3] [%] | pest or weed control at 70 g/ha [1, 4] [%] | pest or weed control at 140 g/ha [1, 4] [%] | pest or weed control at 70 g/ha [1, 5] [%] | pest or weed control at 140 g/ha [1, 5] [%] | pest or weed control at 70 g/ha [1, 6] [%] | pest or weed control at 140 g/ha [1, 6] [%] | pest or weed control at 70 g/ha [1, 7] [%] | pest or weed control at 140 g/ha [1, 7] [%] | pest or weed control at 70 g/ha [1, 8] [%] | pest or weed control at 140 g/ha [1, 8] [%] | pest or weed control at 70 g/ha [1, 9] [%] | pest or weed control at 140 g/ha [1, 9] [%] | pest or weed control at 70 g/ha [2, 11] [%] | pest or weed control at 140 g/ha [2, 11] [%] | pest or weed control at 70 g/ha [2, 12] [%] | pest or weed control at 140 g/ha [2, 12] [%] | pest or weed control at 70 g/ha [2, 13] [%] | pest or weed control at 140 g/ha [2, 13] [%] | other results |
| --- | --- | --- | --- | --- | --- | --- | --- | --- | --- | --- | --- | --- | --- | --- | --- | --- | --- | --- | --- | --- | --- |
| COc1c(-c2cc(N)c(Cl)c(C(=O)O)n2)ccc(Cl)c1F [Compound 84, 4-amino-3-chloro-6-(4-chloro-3-fluoro-2-methoxyphenyl)picolinic acid] | 95 to 100 | 95 to 100 | 95 to 100 | 95 to 100 | 95 to 100 | 95 to 100 | 95 to 100 | 95 to 100 | 0 to 29 | 0 to 29 | 85 to 94 | 85 to 94 | 95 to 100 | 95 to 100 | 0 to 29 | 0 to 29 | 0 to 29 | 0 to 29 | 0 to 29 | 0 to 29 | pest or weed control at 70 g/ha [2, 10]: 0 to 29%; pest or weed control at 140 g/ha [2, 10]: 0 to 29%; pest or weed control at 70 g/ha [2, 14]: 0 to 29%; pest or weed control at 140 g/ha [2, 14]: 0 to 29%; pest or weed control at 70 g/ha [2, 15]: 0 to 29%; pest or weed control at 140 g/ha [2, 15]: 0 to 29%; pest or weed control at 70 g/ha [2, 16]: 0 to 29%; pest or weed control at 140 g/ha [2, 16]: 0 to 29%; pest or weed control at 70 g/ha [2, 17]: 0 to 29%; pest or weed control at 140 g/ha [2, 17]: 0 to 29% |
| COC(=O)c1nc(-c2ccc(C(F)(F)F)c(F)c2C)c(F)c(N)c1Cl [Compound 41] | 75 to 84 | 60 to 74 | 0 to 29 | 0 to 29 | 0 to 29 | 0 to 29 | 45 to 59 | 85 to 94 | 0 to 29 | 45 to 59 | 95 to 100 | 95 to 100 | 0 to 29 | 0 to 29 | 0 to 29 | 0 to 29 | 0 to 29 | 0 to 29 | 0 to 29 | 0 to 29 | pest or weed control at 70 g/ha [2, 10]: 0 to 29%; pest or weed control at 140 g/ha [2, 10]: 95 to 100%; pest or weed control at 70 g/ha [2, 15]: 0 to 29%; pest or weed control at 140 g/ha [2, 15]: 0 to 29%; pest or weed control at 70 g/ha [2, 16]: 0 to 29%; pest or weed control at 140 g/ha [2, 16]: 0 to 29%; pest or weed control at 70 g/ha [2, 17]: 0 to 29%; pest or weed control at 140 g/ha [2, 17]: 45 to 59% |
| COC(=O)c1nc(-c2ccc(Cl)c(F)c2CO)cc(N)c1Cl [Compound 29, Methyl 4-amino-3-chloro-6-(4-chloro-3-fluoro-2-(hydroxymethyl)phenyl)picolinate] | 0 to 29 | 0 to 29 | 0 to 29 | 0 to 29 | 0 to 29 | 0 to 29 | 85 to 94 | 85 to 94 | 0 to 29 | 0 to 29 | 0 to 29 | 0 to 29 | 0 to 29 | 0 to 29 | 0 to 29 | 0 to 29 | 0 to 29 | 0 to 29 | 0 to 29 | 0 to 29 | pest or weed control at 70 g/ha [2, 10]: 0 to 29%; pest or weed control at 140 g/ha [2, 10]: 0 to 29%; pest or weed control at 70 g/ha [2, 14]: 0 to 29%; pest or weed control at 140 g/ha [2, 14]: 0 to 29%; pest or weed control at 70 g/ha [2, 15]: 0 to 29%; pest or weed control at 140 g/ha [2, 15]: 0 to 29%; pest or weed control at 70 g/ha [2, 16]: 0 to 29%; pest or weed control at 140 g/ha [2, 16]: 0 to 29%; pest or weed control at 70 g/ha [2, 17]: 0 to 29%; pest or weed control at 140 g/ha [2, 17]: 0 to 29% |
| Cc1c(-c2cc(N)c(Cl)c(C(=O)O)n2)ccc(C(F)(F)F)c1F [Compound 61, 4-amino-3-chloro-6-(3-fluoro-2-methyl-4-(trifluoromethyl)phenyl)picolinic acid] | 85 to 94 | 85 to 94 | 0 to 29 | 0 to 29 | 45 to 59 | 60 to 74 | 85 to 94 | 85 to 94 | 95 to 100 | 95 to 100 | 85 to 94 | 85 to 94 | 0 to 29 | 0 to 29 | 0 to 29 | 0 to 29 | 85 to 94 | 85 to 94 | 0 to 29 | 0 to 29 | pest or weed control at 70 g/ha [2, 14]: 45 to 59%; pest or weed control at 140 g/ha [2, 14]: 60 to 74%; pest or weed control at 70 g/ha [2, 15]: 0 to 29%; pest or weed control at 140 g/ha [2, 15]: 0 to 29%; pest or weed control at 70 g/ha [2, 16]: 0 to 29%; pest or weed control at 140 g/ha [2, 16]: 30 to 44%; pest or weed control at 70 g/ha [2, 17]: 0 to 29%; pest or weed control at 140 g/ha [2, 17]: 0 to 29% |
